Assay results published in patent US6737383B1, “Herbicidal oxadiazolidines” (priority 1999, dated 2004).

Columns and labels:
corn = experiment: Test B pre/postemergence corn; format: in vivo, Zea mays; settings: for Corn plant response rating: scale of 0 to 10 where 0 is no effect and 10 is complete control
Outline: (§1)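 Response is a visual 0-to-10 score relative to untreated plants, where 0 means no effect and 10 means complete control, taken twelve to sixteen days after application. Treatments went onto soil at planting and onto foliage of 1- to 4-leaf plants, using a surfactant-containing non-phytotoxic solvent.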

soybean = experiment: Test B pre/postemergence soybean; format: in vivo, Glycine max; settings: for Soybean plant response rating: scale of 0 to 10 where 0 is no effect and 10 is complete control
Outline: as §1

surinam grass = experiment: Test B pre/postemergence surinam grass; format: in vivo, Brachiaria decumbens
Outline: as §1

bedstraw = experiment: Test B pre/postemergence bedstraw; format: in vivo, Galium aparine; settings: for Plant response rating, Bedstraw: Postemergence
Outline: as §1

sugar beet = experiment: Test B pre/postemergence sugar beet; format: in vivo, Beta vulgaris; settings: for Sugarbeets plant response rating: scale of 0 to 10 where 0 is no effect and 10 is complete control
Outline: as §1

pigweed = experiment: Test B pre/postemergence pigweed; format: in vivo, Amaranthus retroflexus; settings: for Redroot pigweed plant response rating: scale of 0 to 10 where 0 is no effect and 10 is complete control
Outline: as §1

smallflower flatsedge = experiment: Test B flood test smallflower flatsedge; format: in vivo, Cyperus difformis
Outline: (§2)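 Each value is a visual injury score relative to controls, with 10 meaning complete control and 0 no effect. Evaluation took place twelve to sixteen days after the 2-leaf-stage plants were treated and kept in the greenhouse.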

giant foxtail = experiment: Test B pre/postemergence giant foxtail; format: in vivo, Setaria faberii; settings: for Giant foxtail plant response rating: scale of 0 to 10 where 0 is no effect and 10 is complete control
Outline: as §1

rice = experiment: Test B flood test rice; format: in vivo, Oryza sativa
Outline: as §2

blackgrass = experiment: Test B pre/postemergence blackgrass; format: in vivo, Alopecurus myosuroides
Outline: as §1

velvetleaf = experiment: Test B pre/postemergence velvetleaf; format: in vivo, Abutilon theophrasti; settings: for Velvetleaf plant response rating: scale of 0 to 10 where 0 is no effect and 10 is complete control
Outline: as §1

bamyardgrass = experiment: Test B flood test barnyardgrass; format: in vivo, Echinochloa crus-galli
Outline: as §2

rape = experiment: Test B pre/postemergence rape; format: in vivo, Brassica napus; settings: for Rape plant response rating: scale of 0 to 10 where 0 is no effect and 10 is complete control
Outline: as §1

purple nutsedge = experiment: Test B pre/postemergence purple nutsedge; format: in vivo, Cyperus rotundus; settings: for Nutsedge plant response rating: scale of 0 to 10 where 0 is no effect and 10 is complete control
Outline: as §1

morningglory = experiment: Test B pre/postemergence morningglory; format: in vivo, Ipomoea hederacea; settings: for Morningglory plant response rating: scale of 0 to 10 where 0 is no effect and 10 is complete control
Outline: as §1

duck salad = experiment: Test B flood test duck salad; format: in vivo, Heteranthera limosa
Outline: as §2

[1] = Postemergence, Rate 125 g/ha, scale 0 to 10, 0 is no effect, 10 is complete control
[2] = Preemergence, Rate 62 g/ha, scale 0 to 10 (0 no effect, 10 complete control)
[3] = Rate 500 g/ha, Postemergence, scale 0 to 10, 0 no effect, 10 complete control
[4] = Preemergence, Rate 250 g/ha, scale of 0 to 10 where 0 is no effect and 10 is complete control
[5] = Preemergence, Rate 500 g/ha, scale of 0 to 10 where 0 is no effect and 10 is complete control
[6] = Rate 62 g/ha, Postemergence, scale of 0 to 10 where 0 is no effect and 10 is complete control
[7] = Rate 250 g/ha, Postemergence, scale of 0 to 10 where 0 is no effect and 10 is complete control
[8] = Postemergence (flood test), Rate 125 g/ha, scale 0 to 10, 0 is no effect, 10 is complete control
[9] = Rate 62 g/ha, Postemergence (flood test species), scale of 0 to 10 where 0 is no effect and 10 is complete control
[10] = Rate 500 g/ha, listed under Postemergence (flood test species), scale 0 to 10, 0 no effect, 10 complete control

CC(C)N(C(=O)n1oc(=O)n(C2CCC2)c1=O)c1ccccc1 [Compound 348]
1: Soybean plant response rating (soybean; Rate 62 g/ha, Postemergence) | Plant response rating, B. signalgrass (surinam grass; [1])
6: Sugarbeets plant response rating (sugar beet; Preemergence, Rate 500 g/ha) | Plant response rating, S. Flatsedge (smallflower flatsedge; [8]) | Blackgrass plant response rating (0 to 10 scale) (blackgrass; Preemergence, Rate 125 g/ha) | Plant response rating, Blackgrass (blackgrass; [7]) | Plant response rating, Velvetleaf (velvetleaf; [3]) | Plant response rating, Nutsedge (purple nutsedge; [3])
3: Plant response rating, Corn (corn; [3]) | B. signalgrass plant response rating (0 to 10 scale, 0 is no effect, 10 is complete control) (surinam grass; Preemergence, Rate 125 g/ha) | Sugarbeets plant response rating (sugar beet; Preemergence, Rate 250 g/ha) | Plant response rating, Sugarbeets (sugar beet; [3]) | Giant foxtail plant response rating (giant foxtail; Rate 62 g/ha, Postemergence) | Plant response rating, Blackgrass (blackgrass; [1]) | Plant response rating, Velvetleaf (velvetleaf; [2]) | Velvetleaf plant response rating (0 to 10 scale) (velvetleaf; Preemergence, Rate 125 g/ha) | Plant response rating, Barnyardgrass (bamyardgrass; Rate 250 g/ha, Postemergence (flood test species), scale of 0 to 10 where 0 is no effect and 10 is complete control) | Plant response rating, Ducksalad (duck salad; [8])
0: Plant response rating, Corn (corn; [1]) | Plant response rating, Corn (corn; [2]) | Corn plant response rating (corn; Rate 62 g/ha, Postemergence) | Plant response rating, Soybean (soybean; [2]) | Soybean plant response rating (0 to 10 scale) (soybean; Preemergence, Rate 125 g/ha) | Soybean plant response rating (soybean; Preemergence, Rate 250 g/ha) | Soybean plant response rating (soybean; Preemergence, Rate 500 g/ha) | B. signalgrass plant response rating (surinam grass; [6]) | Plant response rating, Sugarbeets (sugar beet; [1]) | Plant response rating, Sugarbeets (sugar beet; [2]) | Sugarbeets plant response rating (0 to 10 scale) (sugar beet; Preemergence, Rate 125 g/ha) | Sugarbeets plant response rating (sugar beet; Rate 62 g/ha, Postemergence) | Plant response rating, Redroot pigweed (pigweed; [1]) | Plant response rating, Redroot pigweed (pigweed; [2]) | Redroot pigweed plant response rating (0 to 10 scale) (pigweed; Preemergence, Rate 125 g/ha) | Redroot pigweed plant response rating (pigweed; Rate 62 g/ha, Postemergence) | Plant response rating, Rice (rice; [8]) | Rice plant response rating (rice; [9]) | Plant response rating, Rice (rice; [10]) | Plant response rating, Rape (rape; [1]) | Plant response rating, Rape (rape; [2]) | Rape plant response rating (0 to 10 scale) (rape; Preemergence, Rate 125 g/ha) | Rape plant response rating (rape; Rate 62 g/ha, Postemergence) | Plant response rating, Nutsedge (purple nutsedge; [1]) | Plant response rating, Nutsedge (purple nutsedge; [2]) | Nutsedge plant response rating (0 to 10 scale) (purple nutsedge; Preemergence, Rate 125 g/ha) | Nutsedge plant response rating (purple nutsedge; Preemergence, Rate 250 g/ha) | Nutsedge plant response rating (purple nutsedge; Preemergence, Rate 500 g/ha) | Nutsedge plant response rating (purple nutsedge; Rate 62 g/ha, Postemergence) | Plant response rating, Morningglory (morningglory; [2]) | Morningglory plant response rating (0 to 10 scale) (morningglory; Preemergence, Rate 125 g/ha) | Morningglory plant response rating (morningglory; Preemergence, Rate 250 g/ha) | Morningglory plant response rating (morningglory; Preemergence, Rate 500 g/ha) | Ducksalad plant response rating (duck salad; [9])
4: Plant response rating, Soybean (soybean; [3]) | Plant response rating, B. signalgrass (surinam grass; [7]) | Plant response rating, Bedstraw (bedstraw; Rate 250 g/ha, scale of 0 to 10 where 0 is no effect and 10 is complete control) | S. Flatsedge plant response rating (smallflower flatsedge; [9]) | Plant response rating, Blackgrass (blackgrass; [2]) | Plant response rating, Ducksalad (duck salad; [10])
8: Plant response rating, Giant foxtail (giant foxtail; [1])
7: B. signalgrass plant response rating (surinam grass; [5]) | Plant response rating, B. signalgrass (surinam grass; [3]) | Plant response rating, Bedstraw (bedstraw; Rate 500 g/ha, scale 0 to 10, 0 no effect, 10 complete control) | Plant response rating, S. Flatsedge (smallflower flatsedge; [10]) | Plant response rating, Blackgrass (blackgrass; [3]) | Velvetleaf plant response rating (velvetleaf; Preemergence, Rate 250 g/ha) | Velvetleaf plant response rating (velvetleaf; Preemergence, Rate 500 g/ha) | Plant response rating, Barnyardgrass (bamyardgrass; [10]) | Rape plant response rating (rape; Preemergence, Rate 500 g/ha)
9: Corn plant response rating (corn; Preemergence, Rate 500 g/ha) | Bedstraw plant response rating (bedstraw; [5]) | Plant response rating, Giant foxtail (giant foxtail; [2]) | Plant response rating, Giant foxtail (giant foxtail; [3]) | Blackgrass plant response rating (blackgrass; [4]) | Blackgrass plant response rating (blackgrass; [5]) | Plant response rating, Morningglory (morningglory; [1])
5: B. signalgrass plant response rating (surinam grass; [4]) | Plant response rating, Redroot pigweed (pigweed; [3]) | Plant response rating, Rape (rape; [3])
10: Redroot pigweed plant response rating (pigweed; Preemergence, Rate 250 g/ha) | Redroot pigweed plant response rating (pigweed; Preemergence, Rate 500 g/ha) | Giant foxtail plant response rating (0 to 10 scale) (giant foxtail; Preemergence, Rate 125 g/ha) | Giant foxtail plant response rating (giant foxtail; Preemergence, Rate 250 g/ha) | Giant foxtail plant response rating (giant foxtail; Preemergence, Rate 500 g/ha) | Plant response rating, Morningglory (morningglory; [3])
2: Corn plant response rating (0 to 10 scale) (corn; Preemergence, Rate 125 g/ha) | Corn plant response rating (corn; Preemergence, Rate 250 g/ha) | Plant response rating, Soybean (soybean; [1]) | Plant response rating, Bedstraw (bedstraw; Rate 125 g/ha, scale 0 to 10, 0 is no effect, 10 is complete control) | Blackgrass plant response rating (blackgrass; [6]) | Plant response rating, Velvetleaf (velvetleaf; [1]) | Velvetleaf plant response rating (velvetleaf; Rate 62 g/ha, Postemergence) | Plant response rating, Barnyardgrass (bamyardgrass; [8]) | Barnyardgrass plant response rating (bamyardgrass; [9]) | Rape plant response rating (rape; Preemergence, Rate 250 g/ha) | Morningglory plant response rating (morningglory; Rate 62 g/ha, Postemergence)
